Consider one compound from patent US10028911B2, “Sustained release formulation of methotrexate as a disease-modifying antirheumatic drug (DMARD) and an anti-cancer agent” (PACIRA PHARMACEUTICALS, INC., priority 2010, dated 2018).

Where two headings read alike, the source gives them in different places.

A short description of data set [1]: Pharmacokinetic (PK) study in rats, subcutaneous injection, serum MTX by HPLC. The note with it: rat. It counts as in vivo, Male Sprague Dawley rats. Here is the method:
A pharmacokinetic (PK) study was performed in rats, comparing MTX solution control against four different formulations of MVL-encapsulated MTX at a dose level of 10 mg/kg. Male Sprague Dawley rats weighing 280-320 g received subcutaneous injections of either MTX solution or one of the MVL-encapsulated MTX formulations. The injections were made on the left lateral hind limb of each rat using 1 mL syringes fitted with 25G needles. Each treatment group contained 3 rats. Appropriate dilutions with sterile saline solution were performed to provide a dose of 10 mg/kg of MTX per rat, assuming an average rat weight of 300 g (final injection volume of 200 uL). Rats were ordered by pre-dose weight and then randomized into the different treatment groups.
Serum MTX analysis was performed to measure MTX in serum using a liquid-liquid extraction (LLE) HPLC method performed by an Agilent 1200 Series system produced by Agilent Technologies headquartered in Santa Clara, Calif. A 100 μL volume of rat serum was mixed with 300 μL of acetonitrile solution containing 1.1% formic acid (w/v) in a 1.5-mL Eppendorf tube. The deproteinization was carried out by vortexing for 1 minute, followed by centrifugation at 13,000 g for 5 minutes. The entire supernatant was transferred into a 1.5-mL microcentrifuge tube with screw cap. Acetonitrile was cleaned out by mixing 500 μL of chloroform with the supernatant. The tube was vortexed for 1 minute and then centrifuged at 13,000 g for 3 minutes. A 40 μL volume of the top aqueous portion was collected into a 100-μL vial insert for HPLC sample injection.
The HPLC system was equipped with a detector set at 302 nm and a 2.1-mm×250-mm Supelcosil LC-18-S with 5-μm particle size column. The mobile phase consisted of 102 mM sodium phosphate (dibasic), 32.5 mM citric acid, and 10% (v/v) acetonitrile (pH˜6.0). The flow rate was 0.6 mL/min, column temperature 35° C., and injection volume 20 μL. An MTX standard curve was prepared by spiking 6 different concentrations of MTX (22.7-727.1 ng/mL) into MTX-free rat serum. The MTX in each spiked standard was extracted using the same sample preparation method above.
Additional PK studies on Formulations 1 and 2 were performed as above, including some at reduced doses of MTX. The PK parameters from these studies are summarized below. […] The Cavg is the average plasma concentration over the 7 day time period.

The conditions of data set [2]: cited from earlier work.

For `CN(Cc1cnc2nc(N)nc(N)c2n1)c1ccc(C(=O)N[C@@H](CCC(=O)O)C(=O)O)cc1` [MTX Solution, methotrexate], the “time to drop below LOQ in plasma” value in data set [1] (10 mg/kg, FIG. 1) was no more than 24 h. In data set [1] (MTX dose 10 mg/kg), this compound gave an AUC/Dose of 1.55 µmol·h/L/mg/kg, a Cmax of 14.4 µM and a tmax of 0.5 h. Also, the “standard AUC” value in data set [2] (oral immediate release dosage forms (Hoekstra et al. 2004)) is given as 2466 mcg/L-hr. Also, in data set [2] (orally administered), the t1/2 is 8 to 10 h and the tmax was 1 to 3 h.

As a reminder, the Cmax is the peak of the concentration-time curve.
